In paper PMC9236220 (ACS Chemical Biology, 2022):
Like-named read-outs stand apart in the source and are kept apart here.

How the values were obtained:
[1] = test system: MHV-nLuc; experiment: microbe, parasite or virus in culture; format: cell-based, mouse hepatitis virus (MHV); settings: Murine coronavirus, read-out: MHV-nLuc replication IC50
[2] = test system: SARS-CoV-2-nLuc; format: cell-based
[3] = test system: SHC014-CoV-nLuc; format: cell-based, bat
[4] = test system: WIV1-CoV-nLuc; format: cell-based, bat
[5] = test system: SARS-CoV-2 spike protein uptake, HEK293T-ACE2 cells; format: cell-based
[6] = test system: SARS-CoV-2 spike protein uptake, Caco-2 cells; format: cell-based
[7] = test system: SARS-CoV-2 spike protein uptake, Calu-3 cells; format: cell-based
[8] = test system: kinases; settings: cited from earlier work
[9] = test system: DBT cells
[10] = test system: SARS-CoV-2; settings: cited from earlier work
[11] = test system: SARS-CoV-2; settings: cited from earlier work; remark: listed apart in the source
[12] = test system: Vero cells; settings: cited from earlier work
[13] = test system: A549-ACE2 cells; settings: cited from earlier work

Compound	IC50 [1]	inhibition of SARS-CoV-2-nLuc replication [2]	effect on SHC014-CoV replication [3]	effect on WIV1-CoV replication [4]	decrease in spike protein uptake [5]	decrease in spike protein uptake [6]	decrease in spike protein uptake [7]	kinases inhibited at 1 μM [8]	effect on cell viability of DBT cells [9]	antiviral activity pIC50, SARS-CoV-2 in Vero cells [10]	IC50 ([10]; read-out: antiviral activity IC50, SARS-CoV-2 in Vero cells)	inhibition of SARS-CoV-2 infection pIC50, A549-ACE2 cells [11]	IC50 ([11]; read-out: inhibition of SARS-CoV-2 infection IC50, A549-ACE2 cells)	cell toxicity [12]	cell toxicity [13]
CC(=O)Nc1ccc2ccn(-c3cc(NC4CCC4)n4ncc(C#N)c4n3)c2c1 [Compound 17]	< 1000 nM	–	–	–	–	–	–	–	–	–	–	–	–	–	–
CCC(=O)Nc1cc(Nc2cc(NC3CC3)n3ncc(C#N)c3n2)ccc1C [SGC-CK2-1]	210 nM	inhibition of viral replication was observed	dose-dependent decreases in viral replication	dose-dependent decreases in viral replication	70–80%	> 75%	> 75%	3 kinases	–	–	–	–	–	–	–
O=C(O)c1ccc2c(c1)nc(Nc1cccc(Cl)c1)c1ccncc12 [silmitasertib]	630 nM	–	–	–	–	–	–	–	no effect on cell viability	5.6	2500 nM	< 5	> 10000 nM	cell toxicity at micromolar doses	cell toxicity at micromolar doses
